Measurements: PubChem BioAssay (NCI)
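Compound exposure: 48 hours, 5 concentrations, 96-well plates. TGI denotes the concentration required for complete inhibition of growth.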

Columns and labels:
Test in all cases: DTP human tumour cell line panel, 48 h
786-0 renal = system: 786-0 renal
A498 renal = system: A498 renal
A549 NSCLC = system: A549 NSCLC
ACHN renal = system: ACHN renal
BT-549 breast = system: BT-549 breast
CAKI-1 renal = system: CAKI-1 renal
COLO 205 colon = system: COLO 205 colon
DU-145 prostate = system: DU-145 prostate
EKVX NSCLC = system: EKVX NSCLC
HCT-116 colon = system: HCT-116 colon
HCT-15 colon = system: HCT-15 colon
HL-60(TB) leukemia = system: HL-60(TB) leukemia
HOP-62 NSCLC = system: HOP-62 NSCLC
HOP-92 NSCLC = system: HOP-92 NSCLC
HS 578T breast = system: HS 578T breast
HT29 colon = system: HT29 colon
IGROV1 ovarian = system: IGROV1 ovarian
K-562 leukemia = system: K-562 leukemia
KM12 colon = system: KM12 colon
LOX IMVI melanoma = system: LOX IMVI melanoma
M14 melanoma = system: M14 melanoma
MALME-3M melanoma = system: MALME-3M melanoma
MCF7 breast = system: MCF7 breast
MDA-MB-231 breast = system: MDA-MB-231 breast
MDA-MB-435 = system: MDA-MB-435
MDA-N = system: MDA-N
MOLT-4 leukemia = system: MOLT-4 leukemia
NCI-H226 lung = system: NCI-H226 lung
NCI-H23 lung = system: NCI-H23 lung
NCI-H460 lung = system: NCI-H460 lung
NCI-H522 lung = system: NCI-H522 lung
NCI/ADR-RES ovarian = system: NCI/ADR-RES ovarian
OVCAR-3 ovarian = system: OVCAR-3 ovarian
OVCAR-4 ovarian = system: OVCAR-4 ovarian
OVCAR-5 ovarian = system: OVCAR-5 ovarian
OVCAR-8 ovarian = system: OVCAR-8 ovarian
PC-3 prostate = system: PC-3 prostate
RPMI-8226 leukemia = system: RPMI-8226 leukemia
RXF 393 renal = system: RXF 393 renal
SF-268 CNS = system: SF-268 CNS
SF-295 CNS = system: SF-295 CNS
SF-539 CNS = system: SF-539 CNS
SK-MEL-2 melanoma = system: SK-MEL-2 melanoma
SK-MEL-28 melanoma = system: SK-MEL-28 melanoma
SK-MEL-5 melanoma = system: SK-MEL-5 melanoma
SK-OV-3 ovarian = system: SK-OV-3 ovarian
SN12C renal = system: SN12C renal
SNB-19 CNS = system: SNB-19 CNS
SNB-75 CNS = system: SNB-75 CNS
SR leukemia = system: SR leukemia
SW-620 colon = system: SW-620 colon
T-47D breast = system: T-47D breast
TK-10 renal = system: TK-10 renal
U251 CNS = system: U251 CNS
UACC-257 melanoma = system: UACC-257 melanoma
UACC-62 melanoma = system: UACC-62 melanoma
UO-31 renal = system: UO-31 renal
HCC-2998 colon = system: HCC-2998 colon

SMILES: CNC(=S)N/N=C(/C)CCC/C(C)=N/NC(=S)NC
- TGI (786-0 renal): > 100 µM
- TGI (A498 renal): > 100 µM
- TGI (A549 NSCLC): > 100 µM
- TGI (ACHN renal): > 100 µM
- TGI (BT-549 breast): > 100 µM
- TGI (CAKI-1 renal): > 100 µM
- TGI (COLO 205 colon): > 100 µM
- TGI (DU-145 prostate): > 100 µM
- TGI (EKVX NSCLC): > 100 µM
- TGI (HCT-116 colon): > 100 µM
- TGI (HCT-15 colon): > 100 µM
- TGI (HL-60(TB) leukemia): > 100 µM
- TGI (HOP-62 NSCLC): > 100 µM
- TGI (HOP-92 NSCLC): > 100 µM
- TGI (HS 578T breast): > 100 µM
- TGI (HT29 colon): > 100 µM
- TGI (IGROV1 ovarian): > 100 µM
- TGI (K-562 leukemia): > 100 µM
- TGI (KM12 colon): > 100 µM
- TGI (LOX IMVI melanoma): 44.2 µM
- TGI (M14 melanoma): > 100 µM
- TGI (MALME-3M melanoma): > 100 µM
- TGI (MCF7 breast): 0.563 µM
- TGI (MDA-MB-231 breast): > 100 µM
- TGI (MDA-MB-435): > 100 µM
- TGI (MDA-N): > 100 µM
- TGI (MOLT-4 leukemia): 0.303 µM
- TGI (NCI-H226 lung): > 100 µM
- TGI (NCI-H23 lung): > 100 µM
- TGI (NCI-H460 lung): > 100 µM
- TGI (NCI-H522 lung): > 100 µM
- TGI (NCI/ADR-RES ovarian): > 100 µM
- TGI (OVCAR-3 ovarian): > 93.2 µM
- TGI (OVCAR-4 ovarian): 29.2 µM
- TGI (OVCAR-5 ovarian): > 100 µM
- TGI (OVCAR-8 ovarian): > 100 µM
- TGI (PC-3 prostate): > 100 µM
- TGI (RPMI-8226 leukemia): > 100 µM
- TGI (RXF 393 renal): > 50.3 µM
- TGI (SF-268 CNS): > 88.7 µM
- TGI (SF-295 CNS): > 100 µM
- TGI (SF-539 CNS): > 100 µM
- TGI (SK-MEL-2 melanoma): > 100 µM
- TGI (SK-MEL-28 melanoma): > 100 µM
- TGI (SK-MEL-5 melanoma): > 100 µM
- TGI (SK-OV-3 ovarian): > 100 µM
- TGI (SN12C renal): > 100 µM
- TGI (SNB-19 CNS): > 100 µM
- TGI (SNB-75 CNS): > 100 µM
- TGI (SR leukemia): > 100 µM
- TGI (SW-620 colon): > 100 µM
- TGI (T-47D breast): > 100 µM
- TGI (TK-10 renal): > 100 µM
- TGI (U251 CNS): > 100 µM
- TGI (UACC-257 melanoma): > 100 µM
- TGI (UACC-62 melanoma): > 100 µM
- TGI (UO-31 renal): > 100 µM

SMILES: NS(=O)(=O)c1ccc(NCc2cnc3ccccc3c2)cc1
- TGI (786-0 renal): > 100 µM
- TGI (A498 renal): > 100 µM
- TGI (A549 NSCLC): > 100 µM
- TGI (ACHN renal): > 100 µM
- TGI (BT-549 breast): > 100 µM
- TGI (CAKI-1 renal): > 100 µM
- TGI (COLO 205 colon): > 100 µM
- TGI (DU-145 prostate): > 100 µM
- TGI (EKVX NSCLC): > 100 µM
- TGI (HCC-2998 colon): > 100 µM
- TGI (HCT-116 colon): > 100 µM
- TGI (HCT-15 colon): > 100 µM
- TGI (HL-60(TB) leukemia): 3.96 µM
- TGI (HOP-62 NSCLC): > 100 µM
- TGI (HOP-92 NSCLC): > 100 µM
- TGI (HS 578T breast): > 100 µM
- TGI (HT29 colon): > 100 µM
- TGI (IGROV1 ovarian): > 100 µM
- TGI (K-562 leukemia): > 100 µM
- TGI (KM12 colon): > 100 µM
- TGI (M14 melanoma): > 100 µM
- TGI (MALME-3M melanoma): > 100 µM
- TGI (MCF7 breast): > 100 µM
- TGI (MDA-MB-231 breast): > 100 µM
- TGI (MDA-MB-435): > 100 µM
- TGI (MDA-N): > 100 µM
- TGI (MOLT-4 leukemia): > 100 µM
- TGI (NCI-H226 lung): > 100 µM
- TGI (NCI-H23 lung): > 100 µM
- TGI (NCI-H460 lung): > 100 µM
- TGI (NCI-H522 lung): > 100 µM
- TGI (NCI/ADR-RES ovarian): > 100 µM
- TGI (OVCAR-3 ovarian): > 100 µM
- TGI (OVCAR-4 ovarian): > 100 µM
- TGI (OVCAR-5 ovarian): > 100 µM
- TGI (OVCAR-8 ovarian): > 100 µM
- TGI (PC-3 prostate): > 100 µM
- TGI (RPMI-8226 leukemia): > 100 µM
- TGI (RXF 393 renal): > 100 µM
- TGI (SF-268 CNS): > 100 µM
- TGI (SF-295 CNS): > 100 µM
- TGI (SF-539 CNS): > 100 µM
- TGI (SK-MEL-2 melanoma): > 100 µM
- TGI (SK-MEL-28 melanoma): > 100 µM
- TGI (SK-MEL-5 melanoma): > 100 µM
- TGI (SK-OV-3 ovarian): > 100 µM
- TGI (SN12C renal): > 100 µM
- TGI (SNB-19 CNS): > 100 µM
- TGI (SNB-75 CNS): > 100 µM
- TGI (SR leukemia): > 100 µM
- TGI (SW-620 colon): > 100 µM
- TGI (T-47D breast): > 100 µM
- TGI (TK-10 renal): > 100 µM
- TGI (U251 CNS): > 100 µM
- TGI (UACC-257 melanoma): > 100 µM
- TGI (UACC-62 melanoma): > 100 µM
- TGI (UO-31 renal): > 100 µM
